Patent EP0054578A1, “N-(substituted chromone-3-carbonyl)-phenylglycine derivatives” (Eisai Co., Ltd., priority 1980, dated 1982)
≈ marks a conversion by molar mass, not a printed value.

Tests used:
Experiment in all cases: Antibacterial activity (MIC)
Format in all cases: cell-based
Proteus morganii EP-14 = details: Morganella morganii, EP14
[1] = system: Serratia marcescens ES-75; details: ES75
[2] = system: Staphylococcus aureus 209-P
[3] = system: Klebsiella pneumoniae EK-6; details: EK6
[4] = system: Pseudomonas aeruginosa EP-172; details: EP172
Escherichia coli NIHJ = system: Escherichia coli NIHJ

| SMILES | MIC (Proteus morganii EP-14) | MIC [1] | MIC [2] | MIC [3] | MIC [4] | MIC (Escherichia coli NIHJ) |
| --- | --- | --- | --- | --- | --- | --- |
| CCOC(=O)Oc1cc2occ(C(=O)N[C@@H](C(=O)N[C@@H]3C(=O)N4C(C(=O)O)=C(CSc5nnnn5CC(=O)O)CS[C@H]34)c3ccc(O)cc3)c(=O)c2cc1OC(=O)OCC [Preparatory Example 2 A, 7β-[D-2-{6,7-bis(ethoxycarbonyloxy)chromone-3-carboxamido}-2-(4-hydroxyphenyl)acetamido]-3-[(1-carboxymethyl-5-tetrazolyl)thiomethyl]-3-cephem-4-carboxylic acid] | 1.56 mg/L (≈ 1.79 µM) | ≤ 0.05 mg/L | 6.25 mg/L (≈ 7.19 µM) | ≤ 0.05 mg/L | 0.8 mg/L (≈ 0.92 µM) | 0.4 mg/L (≈ 0.46 µM) |
| O=C(O)Cn1nnnc1SCC1=C(C(=O)O)N2C(=O)[C@@H](NC(=O)[C@H](NC(=O)c3coc4cc(O)c(O)cc4c3=O)c3ccc(O)cc3)[C@H]2SC1 [Preparatory Example 2 B, 7β-[D-2-(6,7-Dihydroxychromone-3-carboxyamido)-2-(4-hydroxyphenyl)acetamido]-3-[(1-carboxymethyl-5-tetrazolyl)thiomethyl]-cephem-4-carboxylic acid] | 12.5 mg/L (≈ 17.2 µM) | ≤ 0.1 mg/L | 3.13 mg/L (≈ 4.31 µM) | ≤ 0.1 mg/L | 0.8 mg/L (≈ 1.1 µM) | 0.4 mg/L (≈ 0.551 µM) |
